Results on five molecules are retold here after US20120095024A1, “TOLUIDINE SULFONAMIDES AND THEIR USE” (Elara Pharmaceuticals GmbH, priority 2008, published 2012).

The term EC50 denotes the concentration giving half of the maximal effect. A lower EC50 goes with greater potency. As a reminder, the IC50 is the concentration that inhibits the measured activity by half. As usually defined, the inhibition is the change of the read-out against control, counted positive when it falls. Higher therefore signals strong suppression.

SMILES strings stand for the structures.

Assay [1] relates to MCF7 cells. Kind of assay: Cell proliferation assay (ATPlite), MCF-7. In kind it is cell-based, human. The conditions noted are these: Homo sapiens, inhibition of cell proliferation, 72 h. A digest of the protocol:
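Cells seeded (MCF-7 2000/well, HG-1 1000/well in RPMI with 2 ng/ml IL-6), then after 24 h exposed to compound at 0.5% DMSO final for 72 h. Proliferation read as ATP luminescence (ATPlite); EC50 calculated from the dose-response.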
A general note: In ATP-based viability assays light output follows the ATP content of the culture.

Assay [2] concerns estrogen receptor (ER)-mediated transcriptional activity. The experiment in a line: Inhibition of estrogen receptor (ER) signaling, ERE-tk-luc transfection assay in MCF-7 cells. In kind it is cell-based. The note with it: Homo sapiens, MCF7, ERE-tk-luc luciferase readout, 24 h. The method, then: To determine the effect of the compounds on estrogen receptor (ER)-mediated transcriptional activity a transfection assay using the MCF-7 cell line was performed. A luciferase-coupled ERE-tk-luc construct was obtained from Dr. G. Reid (EMBL).
In brief, MCF-7 cells were maintained as described previously and seeded on the first experimental day at a concentration of 3500 cells/well in 100 μl medium and incubated under standard conditions for 24 h. Following this initial incubation period, transfection was carried out using 5 ng of the ERE-tk-luc construct (per well) and Exgene 500 transfection reagent (Fermentas) in a final buffered solution containing 150 mM NaCl and 20 mM Tris pH 8.4. The plates were then maintained for 3-4 hours until cell culture conditions in the incubator before compounds were added at 11× concentrations to yield the final desired compound concentrations in 0.5% DMSO (in the same manner as for the proliferation assays described previously).
After an additional 24 h incubation period the degree of inhibition of ER-signaling was determined via a luciferase readout. Cells were treated with Britelite™ plus solution according to the manufacturer's instructions (PerkinElmer, britelite plus, Ultra-High Sensitivity Luminescence Reporter Gene Assay System) and luciferase levels measured on an Envision HTS multilabel plate reader (PerkinElmer) in luminescence mode according to established protocols. Raw data were imported into an ActivityBase database (IDBS, ID Business Solutions) and IC50 values calculated using the IDBS program ActivityBase XE.

Assay [3] addresses T1, tubulin (Sus scrofa, UniProt P02550+P02554).
T1 construct: prepared in-house from porcine brain using a standard procedure involving cycles of polymerization/de-polymerization; from tissue; host or cells: porcine brain
The experiment in a line: Inhibition of in vitro tubulin polymerization. Type of assay: biochemical, porcine. The conditions noted are these: final absorbance 340 nm at 90 min. The procedure:
To assess the degree of inhibition of in vitro tubulin polymerization, a tubulin solution (prepared in-house from porcine brain using a standard procedure involving cycles of polymerization/de-polymerization, see Castoldi & Popov (2003) Protein Expr. Purif. 32(1): 83-88) was incubated with varying concentrations of compounds under polymerizing conditions and kinetic experiments performed to determine the amount of polymerization (as measured by changes in OD at 340 nm) taking place over a 90 min period.
Compound solutions were diluted in double-distilled water to yield final 10× solutions containing 5% DMSO. 5 μl solutions were then added to the wells on a 384-well clear-bottom plate (Corning #3711, Corning Inc.) in preparation for the addition of tubulin. The tubulin solution (19.6 mg/ml, in 80 mM K-PIPES [pH 6.8], 1 mM MgCl2, 1 mM EGTA) was re-suspended to a final concentration of 4 mg/ml with ice cold G-PEM buffer (80 mM PIPES [pH 6.8], 2 mM MgCl2, 0.5 mM EGTA, 10% glycerol, 1 mM GTP) and maintained on ice for at least 1 min. 50 μl was then added to the pre-dispensed compound solutions, the plate orbital shaken on a medium setting for 5 s, and the first measurement begun immediately.
Experiments were carried out on a Safire^2™ monochromator (Tecan) preset to a stable temperature of 37° C.; the degree of polymerization was determined by measuring the absorbance of the solutions at 340 nm every minute over the 90 min cycle. Reported inhibition values were based on the final absorbance at 90 min and calculated with reference to a vehicle control (0.5% DMSO) using the minimum and maximum signals obtained for this sample.

For assay [4], the system named is caspase-3/7. Kind of assay: Activation of apoptosis, Caspase-Glo 3/7 in HG-1 cells. In kind it is cell-based. The note with it: caspase-3/7 activation, 24 h. The method, then:
Activation of caspase-3/7 signal following treatment with test compounds was carried out using a Caspase-Glo® 3/7 kit (Promega). In brief, HG-1 cells were seeded at a concentration of 1000 cells/well in 50 μl medium into 96-well plates and incubated for 24 h under the conditions described previously. Compounds at various concentrations were then added to the wells (at all final concentrations 0.5% DMSO) and incubated for a further 24 h period. The plates were subsequently removed from the incubator and allowed to equilibrate to room temperature, after which 50 μl Caspase-Glo reagent was added to all wells, the plate shaken at 300 rpm for 30 s, and luminescence measured after a 30 min incubation period on an Envision HTS (PerkinElmer).

Assay [5] has as its system HG1 cells. Kind of assay: Cell proliferation assay (ATPlite), HG-1. Type of assay: cell-based. The note with it: inhibition of cell proliferation, 72 h. The method, then:
MCF-7 human breast adenocarcinoma cells and HL-60 acute promyelocytic leukaemia cells were obtained from ATCC (LGC Promochem). HG-1 multiple myeloma cells were obtained from Dr. D. Hose (DKFZ Heidelberg). The CellSensor® HRE-bla HCT116 cell line (colorectal carcinoma) was obtained from Invitrogen.
Cells were grown under humidified 95% air, 5% CO2 at 37° C. in Dulbecco's modified Eagle's medium (DMEM: MCF-7) or RPMI 1640 medium (RPMI: HL-60, HG-1) supplemented with 10% fetal bovine serum (FBS), 100 U/ml penicillin and 100 μg/ml streptomycin, 2 mM L-glutamine, and 2 ng/ml IL-6 (for the HG-1 cell line only). The HCT116 cell line was grown under the same atmospheric conditions in McCoy's 5A medium supplemented with 10% FBS and penicillin/streptomycin as above, in addition to blasticidin as a selection marker at a final concentration of 5 μg/ml.
Cell proliferation experiments were carried out in 96-well tissue culture plates with seeding of 2000 cells/well (MCF-7) or 1000 cells/well (HL-60, HG-1) in 100 μl of the relevant medium. Cells were subsequently incubated under the conditions mentioned for 24 h prior to addition of compounds.
For the determination of compound EC50 values, 10 μl compounds at 11× concentrations in 5.5% DMSO were added to the wells at various concentrations yielding a final constant percentage of 0.5% DMSO at the desired 1× compound concentration. As a positive control, cells were treated with 5.5% DMSO. The cells were then incubated for a further 72 h prior to the measurement.
To determine the degree of inhibition of cell proliferation, cells were treated with ATPlite solution according to the manufacturer's instructions (PerkinElmer, ATPlite 1-step Luminescence ATP Detection Assay System) and luciferase readout measured on an Envision HTS multilabel plate reader (PerkinElmer) in luminescence mode according to established protocols. Raw data were imported into an ActivityBase database (IDBS, ID Business Solutions) and EC50 values calculated using the IDBS program ActivityBase XE. Table 2A and 2B show the IC50 values obtained in the above-outlined cell proliferation assay for exemplary compounds of the invention.

Assay [6] deals with HIF mediated transcription. Kind of assay: Inhibition of activation of HIF mediated transcription under hypoxic conditions (CellSensor HRE-bla HCT-116). In kind it is cell-based. The note with it: Homo sapiens; HRE-bla HCT-116 cells, deferoxamine-induced hypoxia, 24 h. The method, then:
Inhibition of an activated HIF signaling response under chemically-induced hypoxic conditions due to compound treatment was determined using the CellSensor® HRE-bla HCT-116 stably transfected reporter cell line from Invitrogen according to the manufacturer's instructions. HIF is a transcriptional factor composed of the constitutively expressed HIF1β subunit and one of three HIFα subunits (HIF1α, HIF2α, HIF3α). This assay is responsive towards HIFa activity in general. In one example, HIF-1, when stabilized by hypoxic conditions, upregulates several genes to promote cell survival in low-oxygen conditions. These include glycolysis enzymes, which allow ATP synthesis in an oxygen-independent manner, and vascular endothelial growth factor (VEGF), which promotes angiogenesis. HIF-1 acts by binding to HIF-responsive elements (HREs) in promoters that generally contain the sequence NCGTG.
Cells were maintained as described previously and seeded into 384-well, clear-bottom plates (Corning 3712) at 15000 cells/well in 32 μl assay medium (Opti-MEM [Invitrogen], 0.5% FBS, 100 U/ml penicillin, 100 μg/ml streptomycin, 0.1 mM non-essential amino acids [NEAA], 1 mM sodium pyruvate, 5 mM HEPES [pH 7.3]). Following a 2 h incubation period, compounds (4 μl) were subsequently added to the cells at 10× concentrations in 5% DMSO and incubated under normal conditions for 30 min. To induce hypoxic conditions, 4 μl of a 2 mM deferoxamine (DFO) solution was added to the cells followed by 24 h incubation under standard assay conditions (as described). Control wells included wells containing only medium (no cells) and wells treated with 0.5% DMSO instead of compound.
Prior to the readout, the Substrate Loading Solution was prepared as described in the manufacturer's protocol and 10 μl added to each well. Following a further 2 h incubation period at room temperature and in the dark, fluorescence was measured at two wavelengths (blue channel: ex. 409 nm, em. 460 nm; green channel: ex. 409 nm, em. 530 nm) on a PerkinElmer Envision HTS. For the analysis, the average signal of the cell-free wells at 460 nm and 530 nm was first subtracted from the blue and green channel data, respectively. The blue/green emission ratios were then calculated for each well, dividing the background-corrected blue emission values by the background-corrected green emission values. IC50 values were determined from these ratios using GraphPad Prism (Prism 5, GraphPad software, Inc.).

T1 sequence (P02550 whole entry): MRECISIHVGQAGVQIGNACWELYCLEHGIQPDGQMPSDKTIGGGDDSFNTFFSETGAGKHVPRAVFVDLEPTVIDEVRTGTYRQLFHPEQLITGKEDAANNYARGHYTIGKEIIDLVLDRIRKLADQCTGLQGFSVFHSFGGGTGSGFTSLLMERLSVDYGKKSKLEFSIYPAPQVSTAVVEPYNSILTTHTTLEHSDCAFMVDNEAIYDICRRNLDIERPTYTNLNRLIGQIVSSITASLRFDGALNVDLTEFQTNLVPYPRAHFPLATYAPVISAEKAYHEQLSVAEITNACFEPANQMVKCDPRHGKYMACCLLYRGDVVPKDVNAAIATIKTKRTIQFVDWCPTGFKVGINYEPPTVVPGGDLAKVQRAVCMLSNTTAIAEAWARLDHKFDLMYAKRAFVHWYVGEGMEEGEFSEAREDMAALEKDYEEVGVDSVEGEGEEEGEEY
T1 sequence (P02554 whole entry): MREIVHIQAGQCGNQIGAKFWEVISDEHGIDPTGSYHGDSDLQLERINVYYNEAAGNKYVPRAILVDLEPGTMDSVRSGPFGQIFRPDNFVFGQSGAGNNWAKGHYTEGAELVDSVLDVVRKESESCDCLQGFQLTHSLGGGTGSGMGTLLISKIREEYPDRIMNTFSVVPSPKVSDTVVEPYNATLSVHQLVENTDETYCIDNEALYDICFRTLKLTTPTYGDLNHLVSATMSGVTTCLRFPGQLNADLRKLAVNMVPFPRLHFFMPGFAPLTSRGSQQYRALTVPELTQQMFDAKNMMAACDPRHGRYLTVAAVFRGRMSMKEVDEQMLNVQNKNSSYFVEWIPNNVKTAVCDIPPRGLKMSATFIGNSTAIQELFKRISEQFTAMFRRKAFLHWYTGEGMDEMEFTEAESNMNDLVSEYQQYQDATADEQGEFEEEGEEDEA

With `Cc1ccc(S(=O)(=O)Nc2cc(-c3ccc(C#N)cc3)ccc2C)cc1` [Example 60, N-(4′-Cyano-4-methyl-biphenyl-3-yl)-4-methyl-benzenesulfonamide], the concentration giving a half-maximal response (EC50) in assay [1] and in assay [4] was below 500 nM throughout. This molecule showed an IC50 in assay [2] below 500 nM. Also, the inhibition at 10 µM in assay [3] was below 20%.
Turning to `COc1ccc(S(=O)(=O)Nc2cc(-c3cc(C#N)cs3)ccc2C)cc1` [Example 56, N-[5-(4-Cyano-thiophen-2-yl)-2-methyl-phenyl]-4-methoxy-benzenesulfonamide], the EC50 in assay [1] and in assay [4] was below 500 nM each time. Besides, the inhibition at 10 µM in assay [3] was above 50%.
Turning to `COc1ccc(S(=O)(=O)Nc2cc(-c3ccc(C#N)s3)ccc2C)cc1` [Example 51, N-[5-(5-Cyano-thiophen-2-yl)-2-methyl-phenyl]-4-methoxy-benzenesulfonamide], the concentration giving a half-maximal response (EC50) in assay [1], in assay [5], in assay [6] and in assay [4] was below 500 nM in each case.
For `Cc1ccc(S(=O)(=O)Nc2cc(-c3ccc(C#N)s3)ccc2C)cc1` [Example 47, N-[5-(5-Cyano-thiophen-2-yl)-2-methyl-phenyl]-4-methyl-benzenesulfonamide], the 50% effective concentration (EC50) in assay [1], in assay [5] and in assay [4] was below 500 nM each time. Further, the half-maximal inhibitory concentration (IC50) in assay [2] was below 500 nM.
For `COc1ccc(S(=O)(=O)Nc2cc(-c3ccc(C#N)cc3)ccc2C)cc1` [Example 63, N-(4′-Cyano-4-methyl-biphenyl-3-yl)-4-methoxy-benzenesulfonamide], the concentration for a half-maximal effect (EC50) in assay [1] and in assay [4] was below 500 nM each time. Moreover, in assay [3], the inhibition at 10 µM is below 20%.
